Data as given in PubChem BioAssay AID330 (DTP/NCI, 2004).
“And” between values parts separate entries of the source, which are not always exact repeats. Identical values can stand only once. Inconclusive results and toxic doses are left out. Rule for the calls: active = survival T/C of 150% or more; inactive = T/C below 125% in these data.

Test system: P388 leukemia ip, CD2F1 mice, survival T/C
Assay: NCI In Vivo Anticancer Drug Screen. Data for tumor model P388 Leukemia (intraperitoneal) in CD2F1 (CDF1) mice
Conditions: endpoint: median survival time, higher = longer survival
Outline: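 Mice carrying the transplanted tumor received test compound or vehicle. Survival was recorded in each group, and the value is the treated-group measurement divided by that of the vehicle-treated control group.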

[1] = dose: 50.0 mg/kg/injection, schedule: Q01DX005 (ip), vehicle: saline with Tween-80
[2] = dose: 100.0 mg/kg/injection, schedule: Q01DX005 (ip), vehicle: saline with Tween-80
[3] = dose: 50.0 mg/kg/injection, schedule: Q01DX009 (ip), vehicle: saline with Tween-80
[4] = dose: 100.0 mg/kg/injection, schedule: Q01DX009 (ip), vehicle: saline with Tween-80
[5] = dose: 60.0 mg/kg/injection, schedule: Q01DX005 (ip), vehicle: saline with Tween-80
[6] = dose: 120.0 mg/kg/injection, schedule: Q01DX005 (ip), vehicle: saline with Tween-80
[7] = dose: 240.0 mg/kg/injection, schedule: Q01DX005 (ip), vehicle: saline with Tween-80
[8] = dose: 100.0 mg/kg/injection, schedule: Q04DX002 (ip), vehicle: Klucel (hydroxypropylcellulose) (HPC)
[9] = dose: 200.0 mg/kg/injection, schedule: Q04DX002 (ip), vehicle: Klucel (hydroxypropylcellulose) (HPC)
[10] = dose: 400.0 mg/kg/injection, schedule: Q04DX002 (ip), vehicle: Klucel (hydroxypropylcellulose) (HPC)
[11] = dose: 25.0 mg/kg/injection, schedule: Q01DX005 (ip), vehicle: saline with Tween-80

Measured: T/C

CCCCC(=O)N/N=C(\C)[C@]1(O)Cc2c(O)c3c(c(O)c2[C@@H](OC2CC(N)C(O)C(C)O2)C1)C(=O)c1c(OC)cccc1C3=O (stereo partly drawn)
active: dose: 0.5 mg/kg/injection, schedule: Q01DX009 (ip), vehicle: water 155 % of control | dose: 1.0 mg/kg/injection, schedule: Q01DX009 (ip), vehicle: water 190 % of control | dose: 2.0 mg/kg/injection, schedule: Q01DX009 (ip), vehicle: water 180 % of control and 190 % of control | dose: 4.0 mg/kg/injection, schedule: Q01DX009 (ip), vehicle: water 195 % of control and 238 % of control | dose: 8.0 mg/kg/injection, schedule: Q01DX009 (ip), vehicle: water 152 % of control and 247 % of control
inactive: dose: 0.12 mg/kg/injection, schedule: Q01DX009 (ip), vehicle: water 117 % of control | dose: 0.25 mg/kg/injection, schedule: Q01DX009 (ip), vehicle: water 122 % of control

COc1cccc2c1C(=O)c1c(O)c3c(c(O)c1C2=O)CC(O)(C(C)NCCCO)CC3OC1CC(N)C(O)C(C)O1 (stereo not drawn)
active: dose: 24.0 mg/kg/injection, schedule: Q01DX009 (ip), vehicle: water 168 % of control and 172 % of control | dose: 48.0 mg/kg/injection, schedule: Q01DX009 (ip), vehicle: water 173 % of control
inactive: dose: 1.5 mg/kg/injection, schedule: Q01DX009 (ip), vehicle: water 111 % of control

Cc1cc(C)nc(NS(=O)(=O)c2ccc(N=c3c4ccccc4n(Cc4ccccc4)c4ccccc34)cc2)n1
inactive: [1] 98 % of control | [2] 88 % of control

C/C=C(/C)C(=O)O[C@@H]1c2c(C)coc2C(=O)[C@@]2(OC(C)=O)CCC[C@@](C)(O)[C@@]12C
inactive: dose: 3.25 mg/kg/injection, schedule: Q01DX005 (ip), vehicle: saline + alcohol 110 % of control | dose: 6.5 mg/kg/injection, schedule: Q01DX005 (ip), vehicle: saline + alcohol 96 % of control | dose: 13.0 mg/kg/injection, schedule: Q01DX005 (ip), vehicle: saline + alcohol 91 % of control | dose: 26.0 mg/kg/injection, schedule: Q01DX005 (ip), vehicle: saline + alcohol 93 % of control

CCOC(=O)C(C(=O)OCC)=S1c2ccccc2Sc2ccccc21
inactive: dose: 60.0 mg/kg/injection, schedule: Q01DX005 (ip), vehicle: Klucel (hydroxypropylcellulose) (HPC) 90 % of control | dose: 120.0 mg/kg/injection, schedule: Q01DX005 (ip), vehicle: Klucel (hydroxypropylcellulose) (HPC) 89 % of control

CCOC(=O)CN1CN(CCc2ccccc2)CC(C)(C)C1OCC (stereo not drawn)
inactive: [3] 104 % of control | [4] 101 % of control | dose: 200.0 mg/kg/injection, schedule: Q01DX009 (ip), vehicle: saline with Tween-80 121 % of control | dose: 400.0 mg/kg/injection, schedule: Q01DX009 (ip), vehicle: saline with Tween-80 112 % of control

O=C1C(CC=C(Cl)Cl)=C(OC2OC(CO)C(O)C(O)C2O)C(=O)c2ccccc21 (stereo not drawn)
inactive: dose: 3.12 mg/kg/injection, schedule: Q01DX009 (ip), vehicle: saline with Tween-80 103 % of control | dose: 6.25 mg/kg/injection, schedule: Q01DX009 (ip), vehicle: saline with Tween-80 109 % of control | dose: 12.5 mg/kg/injection, schedule: Q01DX009 (ip), vehicle: saline with Tween-80 111 % of control

Clc1ccccc1C=Nc1ccccc1
inactive: [3] 121 % of control

Cc1ccc(S(=O)(=O)N(CCCc2c(Cl)nc(N)nc2-c2ccccc2)c2ccccc2)cc1
inactive: [5] 87 % of control | [6] 87 % of control | [7] 89 % of control

CCCCCC(O)(CCCCC)CCCCC
inactive: dose: 60.0 mg/kg/injection, schedule: Q01DX005 (ip), vehicle: saline 101 % of control | dose: 120.0 mg/kg/injection, schedule: Q01DX005 (ip), vehicle: saline 101 % of control | dose: 240.0 mg/kg/injection, schedule: Q01DX005 (ip), vehicle: saline 92 % of control

O=c1c2c(nc3n1CCSCC3)NCCC2
inactive: [8] 104 % of control | [9] 98 % of control | [10] 100 % of control

Nc1ncccc1O
inactive: dose: 2.5 mg/kg/injection, schedule: Q01DX009 (ip), vehicle: saline 104 % of control | dose: 5.0 mg/kg/injection, schedule: Q01DX009 (ip), vehicle: saline 97 % of control | dose: 10.0 mg/kg/injection, schedule: Q01DX009 (ip), vehicle: saline 96 % of control | dose: 20.0 mg/kg/injection, schedule: Q01DX009 (ip), vehicle: saline 110 % of control | dose: 40.0 mg/kg/injection, schedule: Q01DX009 (ip), vehicle: saline 107 % of control

O=C(Nc1cc(-c2ccccc2)[nH]n1)c1ccccc1Cl
inactive: [5] 100 % of control | [6] 93 % of control | [7] 93 % of control

O=[N+]([O-])C1CCCCCCCCCCC1
inactive: dose: 100.0 mg/kg/injection, schedule: Q01DX001 (ip), vehicle: other 100 % of control | dose: 200.0 mg/kg/injection, schedule: Q01DX001 (ip), vehicle: other 100 % of control | dose: 400.0 mg/kg/injection, schedule: Q01DX001 (ip), vehicle: other 108 % of control

CS(=O)(=O)c1nnc(-c2cc[n+]([O-])cc2)s1
inactive: dose: 6.25 mg/kg/injection, schedule: Q01DX005 (ip), vehicle: Klucel (hydroxypropylcellulose) (HPC) 114 % of control | dose: 12.5 mg/kg/injection, schedule: Q01DX005 (ip), vehicle: Klucel (hydroxypropylcellulose) (HPC) 114 % of control

CC12C=C3CC(OC(=O)c4ccccc4)CCC3(O1)c1ccccc12 (stereo not drawn)
inactive: dose: 25.0 mg/kg/injection, schedule: Q01DX009 (ip), vehicle: saline with Tween-80 99 % of control | [3] 105 % of control | [4] 95 % of control

O=C(NNC(=O)C(Cl)Cl)c1ccccn1
inactive: dose: 50.0 mg/kg/injection, schedule: Q01DX009 (ip), vehicle: Klucel (hydroxypropylcellulose) (HPC) 99 % of control | dose: 100.0 mg/kg/injection, schedule: Q01DX009 (ip), vehicle: Klucel (hydroxypropylcellulose) (HPC) 101 % of control | dose: 200.0 mg/kg/injection, schedule: Q01DX009 (ip), vehicle: Klucel (hydroxypropylcellulose) (HPC) 109 % of control

Nc1nc2ccc(NCc3ccc(C(=O)NC(CCC(=O)O)C(=O)O)cc3)cc2c(=O)[nH]1 (stereo not drawn)
inactive: dose: 6.25 mg/kg/injection, schedule: Q01DX005 (ip), vehicle: saline with Tween-80 108 % of control | dose: 12.5 mg/kg/injection, schedule: Q01DX005 (ip), vehicle: saline with Tween-80 108 % of control | [11] 103 % of control and 108 % of control | [1] 113 % of control and 117 % of control

O=C1CCC(C(=O)O)C(C(=O)O)C1 (stereo not drawn)
inactive: dose: 50.0 mg/kg/injection, schedule: Q01DX001 (ip), vehicle: saline 107 % of control | dose: 100.0 mg/kg/injection, schedule: Q01DX001 (ip), vehicle: saline 100 % of control | dose: 200.0 mg/kg/injection, schedule: Q01DX001 (ip), vehicle: saline 101 % of control | dose: 400.0 mg/kg/injection, schedule: Q01DX001 (ip), vehicle: saline 107 % of control

COc1ccc(C2=C(Cl)C(=O)N(c3ccc(OC)cc3OC)C(=O)C2(Cl)Cl)cc1
inactive: [8] 98 % of control | [9] 101 % of control | [10] 117 % of control

CCOC(=O)c1c[nH]c2cc3ccccc3cc2c1=O
inactive: dose: 50.0 mg/kg/injection, schedule: Q01DX009 (ip), vehicle: saline 91 % of control | dose: 100.0 mg/kg/injection, schedule: Q01DX009 (ip), vehicle: saline 107 % of control | dose: 200.0 mg/kg/injection, schedule: Q01DX009 (ip), vehicle: saline 117 % of control

CN(C)c1ccc2c(c1)C(=O)N(OS(C)(=O)=O)C2=O
inactive: [11] 111 % of control | [1] 108 % of control and 117 % of control | [2] 106 % of control

[O-]/[N+](=C\c1ccccc1)C(c1ccccc1)c1ccccc1
inactive: dose: 25.0 mg/kg/injection, schedule: Q04DX003 (ip), vehicle: saline 100 % of control | dose: 50.0 mg/kg/injection, schedule: Q04DX003 (ip), vehicle: saline 100 % of control | dose: 100.0 mg/kg/injection, schedule: Q04DX003 (ip), vehicle: saline 100 % of control

N#CC1(OC2OC(CO)C(O)C(O)C2O)C=CC(OS(=O)(=O)O)C1 (stereo not drawn)
inactive: dose: 25.0 mg/kg/injection, schedule: Q01DX005 (ip), vehicle: saline 103 % of control | dose: 50.0 mg/kg/injection, schedule: Q01DX005 (ip), vehicle: saline 100 % of control | dose: 100.0 mg/kg/injection, schedule: Q01DX005 (ip), vehicle: saline 116 % of control | dose: 200.0 mg/kg/injection, schedule: Q01DX005 (ip), vehicle: saline 97 % of control
